Experiments:
[1] = target: T1, CLK4 (Cdc-like kinase 4; Cdc2-like kinase 4) (Homo sapiens, UniProt Q9HAZ1); assay: LanthaScreen Eu kinase binding assay (FRET)
Description: (§1) LanthaScreen Eu kinase binding assay (FRET) on CLK4 (Cdc-like kinase 4; Cdc2-like kinase 4)

CLK1 [2] = target: T2, CLK1 (Homo sapiens, UniProt P49759); assay: SelectScreen kinase profiling (assay format per kinase not given); type: biochemical; details: read-out: % inhibition at 30 nM
T2 construct: Thermo Fisher SelectScreen panel kinase

CLK2 [3] = target: T3, CLK2 (Homo sapiens, UniProt P49760); assay: as above; type: biochemical; details: read-out: % inhibition at 30 nM
T3 construct: Thermo Fisher SelectScreen panel kinase

CLK3 [4] = target: T4, CLK3 (Homo sapiens, UniProt P49761); assay: biochemical; parameters: Thermo Fisher SelectScreen kinase assays (LanthaScreen Eu binding, Adapta or Z'LYTE), per cent inhibition
T4 construct: Thermo Fisher SelectScreen panel kinase
Experimental: (§2) Enzyme‐based assays were carried out by Thermo Fisher Scientific (Waltham, MA, USA). Thermo Fisher Scientific utilizes LanthaScreen Eu Kinase Binding Assay Technology (www.thermofisher.com/lanthascreen), which is based on fluorescence resonance energy transfer (FRET), to conduct the kinase activity assays. Fluorescent receptor dyes are conjugated to the kinase, and an Eu‐labeled anti‐tag antibody is added to detect the phosphorylated fluorescein‐labeled substrate. The fluorescence‐labeled kinase, antibody, and test compounds are combined in an appropriate buffer solution. After incubation, the mixture is placed in a fluorescent plate reader capable of detecting FRET signals. FRET efficiency is calculated by comparing the ratio of the acceptor emission to the donor emission. The selected compounds were evaluated at specified concentrations, and IC50 values were determined using GraphPad Prism software (La Jolla, CA, USA). Each enzymatic activity assay was performed in duplicate, following the quality control guidelines of Thermo Fisher Scientific. Kinase profiling was carried out using the SelectScreen kinase profiling service provided by Thermo Fisher Scientific, with supplementary assays such as Adapta and Z'LYTE included when available for the respective kinases. The detailed protocols are available at the following links: www.thermofisher.com/adapta and https://www.thermofisher.com/z‐lyte. Selectivity is essential for kinase inhibitors to minimize off‐target effects and reduce adverse reactions. Selective inhibitors also enable researchers to better understand the specific functions of targets like CLK4 in physiological and pathological pathways. Therefore, we further evaluated the selectivity of compound 150441 using kinase profiling analysis. The compound was tested at a concentration of 30 nM against a panel of 60 kinases from various families using Thermo Fisher SelectScreen kinase profiling services (Figure 7 ). […] In addition, CLKs comprise four isoforms: CLK1, CLK2, CLK3, and CLK4.

[5] = target: T1, CLK4 (Cdc-like kinase 4; Cdc2-like kinase 4); assay: biochemical; parameters: Thermo Fisher SelectScreen kinase assays (LanthaScreen Eu binding, Adapta or Z'LYTE), per cent inhibition
Experimental: as §2

CLK2 [6] = target: T3, CLK2; assay: biochemical; parameters: Thermo Fisher SelectScreen kinase assays (LanthaScreen Eu binding, Adapta or Z'LYTE), per cent inhibition
Experimental: as §2

CLK1 [7] = target: T2, CLK1; assay: biochemical; parameters: Thermo Fisher SelectScreen kinase assays (LanthaScreen Eu binding, Adapta or Z'LYTE), per cent inhibition
Experimental: as §2

CLK3 [8] = target: T4, CLK3; assay: SelectScreen kinase profiling (assay format per kinase not given); type: biochemical; details: read-out: % inhibition at 30 nM
[9] = target: T1, CLK4 (Cdc-like kinase 4; Cdc2-like kinase 4); assay: LanthaScreen Eu kinase binding assay (FRET); type: biochemical
Description: as §1

T4 sequence (P49761 whole entry): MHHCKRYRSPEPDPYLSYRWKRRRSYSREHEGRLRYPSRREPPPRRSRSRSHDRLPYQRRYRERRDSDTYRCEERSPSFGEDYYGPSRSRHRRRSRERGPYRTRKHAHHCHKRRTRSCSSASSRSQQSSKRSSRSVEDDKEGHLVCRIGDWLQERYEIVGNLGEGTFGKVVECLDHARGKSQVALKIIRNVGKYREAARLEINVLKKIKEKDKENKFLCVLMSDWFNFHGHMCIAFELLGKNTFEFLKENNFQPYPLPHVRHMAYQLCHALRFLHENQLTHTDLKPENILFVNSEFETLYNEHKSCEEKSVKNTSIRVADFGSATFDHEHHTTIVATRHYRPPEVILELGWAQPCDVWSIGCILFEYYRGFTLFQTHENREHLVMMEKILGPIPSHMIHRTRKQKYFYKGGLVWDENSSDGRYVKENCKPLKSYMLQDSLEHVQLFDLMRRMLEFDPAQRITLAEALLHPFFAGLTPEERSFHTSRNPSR
T2 sequence (P49759 whole entry): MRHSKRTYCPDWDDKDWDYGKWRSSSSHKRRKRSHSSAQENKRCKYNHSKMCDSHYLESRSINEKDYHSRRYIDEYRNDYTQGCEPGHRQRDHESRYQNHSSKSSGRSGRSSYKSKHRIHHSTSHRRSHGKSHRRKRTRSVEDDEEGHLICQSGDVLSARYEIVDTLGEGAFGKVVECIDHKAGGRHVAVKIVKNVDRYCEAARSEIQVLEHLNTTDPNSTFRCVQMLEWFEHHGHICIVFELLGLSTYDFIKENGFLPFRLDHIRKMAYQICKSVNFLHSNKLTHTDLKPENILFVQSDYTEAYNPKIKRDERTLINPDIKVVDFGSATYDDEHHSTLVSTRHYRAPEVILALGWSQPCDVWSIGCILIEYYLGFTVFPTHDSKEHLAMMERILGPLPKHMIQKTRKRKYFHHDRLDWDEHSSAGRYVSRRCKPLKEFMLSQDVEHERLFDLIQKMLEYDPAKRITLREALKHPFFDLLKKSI
T3 sequence (P49760 whole entry): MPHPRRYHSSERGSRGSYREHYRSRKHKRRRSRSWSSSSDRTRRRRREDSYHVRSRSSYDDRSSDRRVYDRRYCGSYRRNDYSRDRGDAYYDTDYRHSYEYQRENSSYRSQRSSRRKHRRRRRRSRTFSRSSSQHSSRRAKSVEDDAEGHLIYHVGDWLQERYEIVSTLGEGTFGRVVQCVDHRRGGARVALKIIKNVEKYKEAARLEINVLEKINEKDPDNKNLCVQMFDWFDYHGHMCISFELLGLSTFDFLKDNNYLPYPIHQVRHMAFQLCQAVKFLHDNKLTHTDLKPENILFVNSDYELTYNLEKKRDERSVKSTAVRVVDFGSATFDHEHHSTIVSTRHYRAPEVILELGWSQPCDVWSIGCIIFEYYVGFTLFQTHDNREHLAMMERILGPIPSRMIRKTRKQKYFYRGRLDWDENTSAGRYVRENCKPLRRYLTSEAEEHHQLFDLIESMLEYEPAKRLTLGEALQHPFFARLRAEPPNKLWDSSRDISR
T1 sequence (Q9HAZ1 whole entry): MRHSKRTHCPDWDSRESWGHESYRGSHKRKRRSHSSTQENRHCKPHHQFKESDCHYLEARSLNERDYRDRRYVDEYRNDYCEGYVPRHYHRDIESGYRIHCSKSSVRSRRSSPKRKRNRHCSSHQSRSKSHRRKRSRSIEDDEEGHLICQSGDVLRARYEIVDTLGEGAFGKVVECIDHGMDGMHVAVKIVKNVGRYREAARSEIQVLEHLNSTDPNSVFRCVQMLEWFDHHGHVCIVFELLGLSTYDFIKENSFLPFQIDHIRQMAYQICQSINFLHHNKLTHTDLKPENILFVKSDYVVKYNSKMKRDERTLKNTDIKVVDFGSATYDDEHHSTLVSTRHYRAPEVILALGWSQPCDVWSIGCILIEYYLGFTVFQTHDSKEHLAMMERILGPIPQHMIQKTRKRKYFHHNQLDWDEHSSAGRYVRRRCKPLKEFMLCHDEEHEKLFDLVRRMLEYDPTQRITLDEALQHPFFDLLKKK

SMILES	IC50 [1] [µM]	inhibition at 1 µM (CLK3 [4]) [%]	inhibition at 1 µM [5] [%]	inhibition at 1 µM (CLK2 [6]) [%]	inhibition at 1 µM (CLK1 [7]) [%]	other results
Cc1c2cnccc2c(C)c2c1c1ccccc1n2CCN(C)C [compound 150441, 150441]	0.0214	6	98	62	75	inhibition at 0.03 µM (CLK1 [2]): 7%; inhibition at 0.03 µM (CLK2 [3]): 9.1%; inhibition at 0.03 µM (CLK3 [8]): 1.8%
Cc1c2cnccc2c(C)c2c1c1ccccc1n2CCNCc1ccccc1 [compound 164016, 164016]	0.0348	7	95	69	65	–
COc1ccc2[nH]c3c(C)c4cc[n+]([O-])cc4c(C)c3c2c1 [compound 237069, 237069]	–	–	–	–	–	inhibition at 1 µM [9]: 47%
Cc1c2c(C(N)=O)nccc2c(C)c2c1c1ccccc1n2Cc1ccccc1 [compound 320613, 320613]	–	–	–	–	–	inhibition at 1 µM [9]: 3%
Cc1c2cnccc2c(C)c2c1c1ccccc1n2Cc1ccccc1 [compound 322087, 322087]	0.121	–	–	–	–	–

More lines, main results first:

IC50 [1] [µM]	inhibition at 1 µM (CLK3 [4]) [%]	inhibition at 1 µM [5] [%]	inhibition at 1 µM (CLK2 [6]) [%]	inhibition at 1 µM (CLK1 [7]) [%]	SMILES	other results
0.0988	–	–	–	–	COc1ccc2[nH]c3c(C)c4ccncc4c(C)c3c2c1 [compound 69187, 69187]	–
0.101	–	–	–	–	COc1ccc2c(c1)c1c(C)c3cnccc3c(C)c1n2CC1CO1 (centres unmarked) [compound 150836, 150836]	–
0.0382	4	98	81	86	Cc1c2cnccc2c(C)c2c1c1ccccc1n2CC1CO1 (centres unmarked) [compound 152731, 152731]	–

Reference: PMC12097107, “Identification and Biological Evaluation of a Novel CLK4 Inhibitor Targeting Alternative Splicing in Pancreatic Cancer Using Structure‐Based Virtual Screening” (Advanced Science, 2025)
